Experimental data taken from ChEMBL document CHEMBL3217667, “Extended side chain analogues of 8-aminoquinolines: Synthesis and evaluation of antiprotozoal, antimicrobial, -hematin inhibition, and cytotoxic activities” (Medchemcomm, 2011).
Calls of active or inactive are those of the source. No cut-off for these calls is given here.

What was measured:
LLC-PK1 = assay: Cytotoxicity against pig LLC-PK1 cells by neutral red uptake assay; type: cell-based; conditions: Sus scrofa
Escherichia coli = assay: Antibacterial activity against Escherichia coli; type: functional, organism-based
Plasmodium berghei [1] = assay: Antimalarial activity against Plasmodium berghei infected in mouse assessed as reduction in parasitemia at 10 mg/kg/day, po for 4 days measured up to day 7; type: functional, organism-based
[2] = Selectivity index, ratio of IC50 for African green monkey Vero cells to IC50 for chloroquine-resistant Plasmodium falciparum W2; type: toxicity, cell-based; conditions: read-out: Ratio IC50
Cryptococcus neoformans [3] = assay: Antifungal activity against Cryptococcus neoformans up to 20 ug/ml by broth microdilution assay; type: functional, organism-based
Plasmodium falciparum [4] = assay: Antimalarial activity against chloroquine-sensitive Plasmodium falciparum D6 by lactate dehydrogenase assay; type: functional, organism-based; conditions: Plasmodium falciparum, D6; read-out: IC50
Plasmodium berghei [5] = assay: Antimalarial activity against Plasmodium berghei infected in mouse assessed as reduction in parasitemia at 25 mg/kg/day, po for 4 days measured up to day 60 relative to control; type: functional; design: scale not given: the % may be the effect or the level left
Nakaseomyces glabratus = assay: Antifungal activity against Candida glabrata by broth microdilution assay; type: functional, organism-based
Pichia kudriavzevii = assay: Antifungal activity against Candida krusei by broth microdilution assay; type: functional, organism-based
BT-549 = assay: Cytotoxicity against human BT549 cells by neutral red uptake assay; type: cell-based
Plasmodium berghei [6] = assay: Antimalarial activity against Plasmodium berghei infected in mouse assessed as reduction in parasitemia at 100 mg/kg/day, po for 4 days measured up to day 60 relative to control; type: functional; design: scale not given: the % may be the effect or the level left
Plasmodium berghei [7] = assay: Antimalarial activity against Plasmodium berghei infected in mouse assessed as reduction in parasitemia at 100 mg/kg/day, po for 4 days measured up to day 14; type: functional; design: scale not given: the % may be the effect or the level left
Candida albicans = assay: Antifungal activity against Candida albicans by broth microdilution assay; type: functional, organism-based
Staphylococcus aureus [8] = assay: Antibacterial activity against methicillin-resistant Staphylococcus aureus up to 20 ug/ml; type: functional, organism-based
Vero = assay: Cytotoxicity against African green monkey Vero cells by neutral red uptake assay; type: cell-based; conditions: Chlorocebus sabaeus
Pseudomonas aeruginosa = assay: Antibacterial activity against Pseudomonas aeruginosa; type: functional, organism-based
Leishmania donovani = assay: Antileishmanial activity against Leishmania donovani promastigotes by Alamar Blue assay; type: functional, organism-based
Plasmodium falciparum [9] = assay: Antimalarial activity against chloroquine-resistant Plasmodium falciparum W2 by lactate dehydrogenase assay; type: functional, organism-based; conditions: Plasmodium falciparum, W2; read-out: IC50
[10] = system: Mycobacterium intracellulare; assay: Antibacterial activity against Mycobacterium intracellulare; type: functional, organism-based
[11] = Inhibition of beta-hematin formation after 16 hrs; type: physicochemical
Plasmodium berghei [12] = assay: Antimalarial activity against Plasmodium berghei infected in mouse assessed as reduction in parasitemia at 50 mg/kg/day, po for 4 days measured up to day 60 relative to control; type: functional; design: scale not given: the % may be the effect or the level left
SK-MEL = assay: Cytotoxicity against human SK-MEL cells by neutral red uptake assay; type: cell-based
KB = assay: Cytotoxicity against human KB cells by neutral red uptake assay; type: cell-based
[13] = system: Mycobacterium intracellulare; assay: Antibacterial activity against Mycobacterium intracellulare up to 20 ug/ml; type: functional, organism-based
[14] = Selectivity index, ratio of IC50 for African green monkey Vero cells to IC50 for chloroquine-sensitive Plasmodium falciparum D6; type: toxicity, cell-based; conditions: read-out: Ratio IC50
Aspergillus fumigatus = assay: Antifungal activity against Aspergillus fumigatus by broth microdilution assay; type: functional, organism-based
SK-OV-3 = assay: Cytotoxicity against human SKOV3 cells by neutral red uptake assay; type: cell-based
Staphylococcus aureus [15] = assay: Antibacterial activity against Staphylococcus aureus; type: functional, organism-based
Staphylococcus aureus [16] = assay: Antibacterial activity against methicillin-resistant Staphylococcus aureus; type: functional, organism-based
Cryptococcus neoformans [17] = assay: Antifungal activity against Cryptococcus neoformans by broth microdilution assay; type: functional, organism-based
Plasma = assay: Half life in human plasma; type: ADME, cell-free
Staphylococcus aureus [18] = assay: Antibacterial activity against Staphylococcus aureus up to 20 ug/ml; type: functional, organism-based

| SMILES | IC50 (LLC-PK1) | Activity (Escherichia coli) | selectivity ratio [2] | IC50 (Plasmodium falciparum [4]) | Activity (Nakaseomyces glabratus) | Activity (Pichia kudriavzevii) | IC50 (BT-549) | Activity (Plasmodium berghei [7]) | Activity (Candida albicans) | IC50 (Vero) | Activity (Pseudomonas aeruginosa) | IC50 (Leishmania donovani) | IC90 (Leishmania donovani) | IC50 (Plasmodium falciparum [9]) | IC50 [11] | IC50 (SK-MEL) | IC50 (KB) | Activity [13] | selectivity ratio [14] | Activity (Aspergillus fumigatus) | further results |
| --- | --- | --- | --- | --- | --- | --- | --- | --- | --- | --- | --- | --- | --- | --- | --- | --- | --- | --- | --- | --- | --- |
| COc1cc(NC(C)CCCNC(C)CCCN)c2ncccc2c1.Cl (configuration not stated) | > 23.8 µg/mL | inactive | > 29.7 | 0.57 µg/mL | inactive | inactive | > 23.8 µg/mL | 100% | inactive | > 23.8 µg/mL | inactive | 32 µg/mL | inactive | 0.8 µg/mL | 18.5 µM | > 23.8 µg/mL | > 23.8 µg/mL | inactive | > 41.7 | inactive | Activity (Plasmodium berghei [1]): Active; Activity (Cryptococcus neoformans [3]): inactive; Activity (Plasmodium berghei [5]): 100%; Activity (Plasmodium berghei [6]): 100%; Activity (Staphylococcus aureus [8]): inactive; IC50 [10]: 10 µg/mL; Activity (Plasmodium berghei [12]): 100%; IC50 (SK-OV-3): > 23.8 µg/mL |
| COc1cc(NC(C)CCCNC(C)CCCNC(C)CCCNC(C)CCCN)c2ncccc2c1.Cl (configuration not stated) | > 23.8 µg/mL | inactive | > 18.3 | 2.3 µg/mL | inactive | inactive | > 23.8 µg/mL | 100% | inactive | > 23.8 µg/mL | inactive | 5 µg/mL | 40 µg/mL | 1.3 µg/mL | 75 µM | > 23.8 µg/mL | > 23.8 µg/mL | inactive | > 10.3 | inactive | Activity (Plasmodium berghei [1]): Active; Activity (Cryptococcus neoformans [3]): inactive; Activity (Plasmodium berghei [5]): 100%; Activity (Plasmodium berghei [6]): 100%; Activity (Staphylococcus aureus [8]): inactive; Activity (Plasmodium berghei [12]): 100%; IC50 (SK-OV-3): > 23.8 µg/mL |
| CCCCOc1c(OC)cc(NC(C)CCCNC(C)CCCN)c2nccc(CC)c12.Cl (configuration not stated) | > 23.8 µg/mL | inactive | > 64.2 | 0.6 µg/mL | inactive | inactive | > 23.8 µg/mL | inactive | inactive | > 23.8 µg/mL | inactive | 3.5 µg/mL | 7 µg/mL | 0.37 µg/mL | 10.2 µM | > 23.8 µg/mL | > 23.8 µg/mL | inactive | > 39.6 | inactive | Activity (Cryptococcus neoformans [3]): inactive; IC50 (Staphylococcus aureus [15]): 13.7 µg/mL; MBC (Staphylococcus aureus [15]): 20 µg/mL; MIC (Staphylococcus aureus [15]): 20 µg/mL; IC50 [10]: > 20 µg/mL; IC50 (Staphylococcus aureus [16]): 12.5 µg/mL; MBC (Staphylococcus aureus [16]): 20 µg/mL; MIC (Staphylococcus aureus [16]): 20 µg/mL; IC50 (Cryptococcus neoformans [17]): 7.9 µg/mL; MIC (Cryptococcus neoformans [17]): 20 µg/mL; IC50 (SK-OV-3): > 23.8 µg/mL |
| COc1cc(NC(C)CCCN)c2ncccc2c1 (configuration not stated) [PRIMAQUINE] | – | – | – | – | – | – | – | – | – | > 23.8 µg/mL | – | – | inactive | – | > 1000 µM | – | – | – | – | – | t1/2 (Plasma): 4 h |
| CCCCCCCCOc1c(OC)cc(NC(C)CCCNC(C)CCCN)c2nccc(CC)c12.Cl (configuration not stated) | > 23.8 µg/mL | inactive | > 29 | 0.92 µg/mL | inactive | inactive | > 23.8 µg/mL | inactive | inactive | > 23.8 µg/mL | inactive | 17 µg/mL | 32 µg/mL | 0.82 µg/mL | 15.7 µM | > 23.8 µg/mL | > 23.8 µg/mL | inactive | > 25.8 | inactive | IC50 (Staphylococcus aureus [15]): 14.5 µg/mL; IC50 [10]: > 20 µg/mL; IC50 (Staphylococcus aureus [16]): 10.4 µg/mL; MBC (Staphylococcus aureus [16]): 20 µg/mL; MIC (Staphylococcus aureus [16]): 20 µg/mL; IC50 (Cryptococcus neoformans [17]): 8.5 µg/mL; MFC (Cryptococcus neoformans [17]): 20 µg/mL; MIC (Cryptococcus neoformans [17]): 20 µg/mL; IC50 (SK-OV-3): > 23.8 µg/mL; Activity (Staphylococcus aureus [18]): inactive |
| COc1cc(NC(C)CCCNC(C)CCCNC(C)CCCN)c2ncccc2c1.Cl (configuration not stated) | > 23.8 µg/mL | inactive | > 15.8 | 2.6 µg/mL | inactive | inactive | > 23.8 µg/mL | 100% | inactive | > 23.8 µg/mL | inactive | 4.2 µg/mL | 40 µg/mL | 1.5 µg/mL | 75 µM | > 23.8 µg/mL | > 23.8 µg/mL | inactive | > 9.1 | inactive | Activity (Plasmodium berghei [1]): Active; Activity (Cryptococcus neoformans [3]): inactive; Activity (Plasmodium berghei [5]): 100%; Activity (Plasmodium berghei [6]): 100%; Activity (Staphylococcus aureus [8]): inactive; Activity (Plasmodium berghei [12]): 100%; IC50 (SK-OV-3): > 23.8 µg/mL |
